# Assay results: patent publication US10030020B2, “Spirocycle compounds and methods of making and using same” (Abide Therapeutics, Inc., priority 2016, dated 2018)
# Columns and labels:
# MAGL [1] = target: T1, MAGL (Mus musculus (Mouse), UniProt O35678); assay: In vitro competitive activity-based protein profiling (mouse brain membrane fraction or cell lysates), MAGL band; assay type: biochemical; settings: mouse proteome; for inhibition at 1 µM: read-out: MAGL % Inh 1 μM (mouse); for IC50: competitive ABPP
# Procedure: In Vitro Competitive Activity-Based Protein Profiling.
# Proteomes (mouse brain membrane fraction or cell lysates) (50 μL, 1.0 mg/mL total protein concentration) were preincubated with varying concentrations of inhibitors at 37° C. After 30 min, FP—Rh (1.0 μL, 50 μM in DMSO) was added and the mixture was incubated for another 30 min at 37° C. Reactions were quenched with SDS loading buffer (50 μL-4×) and run on SDS-PAGE.
# ABHD6 [2] = target: T2, ABHD6 (Mus musculus (Mouse), UniProt Q8R2Y0); assay: In vitro competitive activity-based protein profiling (mouse brain membrane fraction or cell lysates), ABHD6 band; assay type: biochemical; settings: mouse proteome; for inhibition at 1 µM: read-out: ABHD6 % Inh 1 μM (mouse); for IC50: competitive ABPP
# Outline: (§1)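 Mouse proteome samples (brain membrane fraction or cell lysate, 1.0 mg/mL protein) were pretreated with varying inhibitor concentrations and subsequently probed with fluorophosphonate-rhodamine, each step lasting 30 min at 37° C. Labelled proteins were separated by SDS-PAGE, and band fluorescence was imaged and quantified.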
# FAAH [3] = target: T3, FAAH (Mus musculus (Mouse), UniProt O08914); assay: In vitro competitive activity-based protein profiling (mouse brain membrane fraction or cell lysates), FAAH band; assay type: biochemical; settings: mouse proteome; for inhibition at 1 µM: read-out: FAAH % Inh 1 μM (mouse); for IC50: competitive ABPP
# Outline: as §1
# MAGL [4] = target: T1, MAGL; assay: Mouse brain proteomes from inhibitor treated mice (oral gavage, sacrificed 4 h after administration, ABPP analysis); assay type: in vivo, mouse (C57Bl/6J); settings: 5 mg/kg oral gavage
# Outline: (§2)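 Mice (wild-type C57Bl/6J) receive inhibitor by oral gavage, e.g. in PEG400/Ethanol/PBS (7/2/1). Each animal is killed 4 h later. Brain proteomes are prepared and analyzed by ABPP, giving % inhibition at 5 mg/kg.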
# FAAH [5] = target: T3, FAAH; assay: Mouse brain proteomes from inhibitor treated mice (oral gavage, sacrificed 4 h after administration, ABPP analysis), FAAH; assay type: in vivo, mouse (C57Bl/6J); settings: 5 mg/kg oral gavage
# Outline: as §2
# ABHD6 [6] = target: T2, ABHD6; assay: Mouse brain proteomes from inhibitor treated mice (oral gavage, sacrificed 4 h after administration, ABPP analysis), ABHD6; assay type: in vivo, mouse (C57Bl/6J); settings: 5 mg/kg oral gavage
# Outline: as §2
# T2 sequence (Q8R2Y0 whole entry): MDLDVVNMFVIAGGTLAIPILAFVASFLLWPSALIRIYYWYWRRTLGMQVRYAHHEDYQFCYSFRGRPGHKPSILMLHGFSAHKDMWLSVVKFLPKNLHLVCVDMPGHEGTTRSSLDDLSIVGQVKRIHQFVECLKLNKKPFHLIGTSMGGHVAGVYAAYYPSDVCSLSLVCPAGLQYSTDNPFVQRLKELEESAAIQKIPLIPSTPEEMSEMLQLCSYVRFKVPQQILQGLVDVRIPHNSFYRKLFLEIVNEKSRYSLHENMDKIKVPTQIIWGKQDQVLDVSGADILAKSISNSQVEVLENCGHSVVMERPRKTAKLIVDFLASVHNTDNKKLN
# T3 sequence (O08914 whole entry): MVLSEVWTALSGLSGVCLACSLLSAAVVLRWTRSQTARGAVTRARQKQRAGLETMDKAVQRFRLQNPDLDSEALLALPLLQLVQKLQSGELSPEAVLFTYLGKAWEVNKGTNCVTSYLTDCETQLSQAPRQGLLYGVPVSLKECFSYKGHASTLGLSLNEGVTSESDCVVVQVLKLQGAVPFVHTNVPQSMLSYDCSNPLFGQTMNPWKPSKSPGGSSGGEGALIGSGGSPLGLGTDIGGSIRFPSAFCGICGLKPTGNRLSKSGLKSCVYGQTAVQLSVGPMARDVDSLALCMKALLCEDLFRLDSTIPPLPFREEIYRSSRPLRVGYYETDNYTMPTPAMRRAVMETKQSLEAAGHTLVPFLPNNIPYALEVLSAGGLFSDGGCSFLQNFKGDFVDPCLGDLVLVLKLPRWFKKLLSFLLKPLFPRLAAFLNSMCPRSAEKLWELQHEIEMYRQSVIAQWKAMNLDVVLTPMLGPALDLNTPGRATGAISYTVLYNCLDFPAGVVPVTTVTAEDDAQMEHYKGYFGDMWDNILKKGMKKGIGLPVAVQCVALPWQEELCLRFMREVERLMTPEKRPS
# T1 sequence (O35678 whole entry): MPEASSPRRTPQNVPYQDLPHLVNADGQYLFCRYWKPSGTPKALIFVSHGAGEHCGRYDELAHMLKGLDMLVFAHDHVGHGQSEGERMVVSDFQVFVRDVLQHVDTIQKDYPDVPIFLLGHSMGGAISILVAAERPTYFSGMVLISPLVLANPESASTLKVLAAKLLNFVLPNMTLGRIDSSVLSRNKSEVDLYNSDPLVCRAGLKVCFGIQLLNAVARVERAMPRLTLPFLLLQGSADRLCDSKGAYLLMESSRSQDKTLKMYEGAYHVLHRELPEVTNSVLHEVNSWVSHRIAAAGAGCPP
Compound,inhibition at 1 µM (MAGL [1]) [%],IC50 (MAGL [1]) [nM],inhibition at 1 µM (ABHD6 [2]) [%],IC50 (ABHD6 [2]) [nM],inhibition at 1 µM (FAAH [3]) [%],IC50 (FAAH [3]) [nM],MAGL % Inh 5 mg/kg (mouse) (MAGL [4]),FAAH % Inh 5 mg/kg (mouse) (FAAH [5]),ABHD6 % Inh 5 mg/kg (mouse) (ABHD6 [6])
"CS(=O)(=O)N1CCN(c2cc(C(F)(F)F)ccc2CN2CCCC23CCN(C(=O)OC(C(F)(F)F)C(F)(F)F)CC3)CC1 [Example 89, 1,1,1,3,3,3-Hexafluoropropan-2-yl 1-(2-(4-(methylsulfonyl)piperazin-1-yl)-4-(trifluoromethyl)benzyl)-1,8-diazaspiro[4.5]decane-8-carboxylate]",> 75,< 100,< 25,> 1000,< 25,> 1000,# (# is <25%),# (# is <25%),# (# is <25%)
"O=C(OC(C(F)(F)F)C(F)(F)F)N1CCC2(CCCN2Cc2ccc(C(F)(F)F)cc2N2CCC(F)(F)CC2)CC1 [Example 90, 1,1,1,3,3,3-Hexafluoropropan-2-yl 1-(2-(4,4-difluoropiperidin-1-yl)-4-(trifluoromethyl)benzyl)-1,8-diazaspiro[4.5]decane-8-carboxylate]",> 75,< 100,< 25,> 1000,< 25,> 1000,## (## is equal to or greater than 25% but less than 75%),# (# is <25%),# (# is <25%)
"CC(=O)NC1CCN(c2cc(C(F)(F)F)ccc2CN2CCCC23CCN(C(=O)OC(C(F)(F)F)C(F)(F)F)CC3)CC1 [Example 93, 1,1,1,3,3,3-Hexafluoropropan-2-yl 1-(2-(4-acetamidopiperidin-1-yl)-4-(trifluoromethyl)benzyl)-1,8-diazaspiro[4.5]decane-8-carboxylate]",> 75,< 100,< 25,> 1000,< 25,> 1000,### (### is ≥75%),# (# is <25%),# (# is <25%)
"CS(=O)(=O)NC1CCN(c2cc(C(F)(F)F)ccc2CN2CCCC23CCN(C(=O)OC(C(F)(F)F)C(F)(F)F)CC3)CC1 [Example 94, 1,1,1,3,3,3-Hexafluoropropan-2-yl 1-(2-(4-(methylsulfonamido)piperidin-1-yl)-4-(trifluoromethyl)benzyl)-1,8-diazaspiro[4.5]decane-8-carboxylate]",> 75,< 100,< 25,> 1000,< 25,> 1000,# (# is <25%),# (# is <25%),# (# is <25%)
"O=C(OC(C(F)(F)F)C(F)(F)F)N1CCC2(CCCN2Cc2ccc(C(F)(F)F)cc2N2CC3COCC3C2)CC1 (stereo not drawn) [Example 97, 1,1,1,3,3,3-Hexafluoropropan-2-yl 1-(2-(tetrahydro-1H-furo[3,4-c]pyrrol-5(3H)-yl)-4-(trifluoromethyl)benzyl)-1,8-diazaspiro[4.5]decane-8-carboxylate]",> 75,< 100,< 25,> 1000,< 25,> 1000,### (### is ≥75%),# (# is <25%),# (# is <25%)
"CC(=O)N1CCN(c2cc(Cl)ccc2CN2CCCC23CCN(C(=O)OC(C(F)(F)F)C(F)(F)F)CC3)CC1 [Example 99, 1,1,1,3,3,3-Hexafluoropropan-2-yl 1-(2-(4-acetylpiperazin-1-yl)-4-chlorobenzyl)-1,8-diazaspiro[4.5]decane-8-carboxylate]",> 75,< 100,< 25,> 1000,< 25,> 1000,### (### is ≥75%),# (# is <25%),# (# is <25%)
"CS(=O)(=O)N1CCN(c2cc(Cl)ccc2CN2CCCC23CCN(C(=O)OC(C(F)(F)F)C(F)(F)F)CC3)CC1 [Example 100, 1,1,1,3,3,3-Hexafluoropropan-2-yl 1-(4-chloro-2-(4-(methylsulfonyl)piperazin-1-yl)benzyl)-1,8-diazaspiro[4.5]decane-8-carboxylate]",> 75,< 100,< 25,> 1000,< 25,> 1000,### (### is ≥75%),# (# is <25%),# (# is <25%)
"O=C(OC(C(F)(F)F)C(F)(F)F)N1CCC2(CCCN2Cc2ccc(Cl)cc2N2CCC(F)(F)CC2)CC1 [Example 101, 1,1,1,3,3,3-Hexafluoropropan-2-yl 1-(4-chloro-2-(4,4-difluoropiperidin-1-yl)benzyl)-1,8-diazaspiro[4.5]decane-8-carboxylate]",> 75,< 100,< 25,> 1000,< 25,> 1000,### (### is ≥75%),# (# is <25%),# (# is <25%)
"O=C(OC(C(F)(F)F)C(F)(F)F)N1CCC2(CCCN2Cc2ccc(Cl)cc2N2CCC(F)CC2)CC1 [Example 102, 1,1,1,3,3,3-Hexafluoropropan-2-yl 1-(4-chloro-2-(4-fluoropiperidin-1-yl)benzyl)-1,8-diazaspiro[4.5]decane-8-carboxylate]",> 75,< 100,< 25,> 1000,< 25,> 1000,### (### is ≥75%),# (# is <25%),# (# is <25%)
"CC(=O)NC1CCN(c2cc(Cl)ccc2CN2CCCC23CCN(C(=O)OC(C(F)(F)F)C(F)(F)F)CC3)CC1 [Example 104, 1,1,1,3,3,3-Hexafluoropropan-2-yl 1-(2-(4-acetamidopiperidin-1-yl)-4-chlorobenzyl)-1,8-diazaspiro[4.5]decane-8-carboxylate]",> 75,< 100,< 25,> 1000,25 to 75,> 1000,## (## is equal to or greater than 25% but less than 75%),# (# is <25%),# (# is <25%)
"CS(=O)(=O)NC1CCN(c2cc(Cl)ccc2CN2CCCC23CCN(C(=O)OC(C(F)(F)F)C(F)(F)F)CC3)CC1 [Example 105, 1,1,1,3,3,3-Hexafluoropropan-2-yl 1-(4-chloro-2-(4-(methylsulfonamido)piperidin-1-yl)benzyl)-1,8-diazaspiro[4.5]decane-8-carboxylate]",> 75,< 100,< 25,> 1000,< 25,> 1000,# (# is <25%),# (# is <25%),# (# is <25%)
"O=C(OC(C(F)(F)F)C(F)(F)F)N1CCC2(CCCN2Cc2ccc(Cl)cc2N2CCC2)CC1 [Example 107, 1,1,1,3,3,3-Hexafluoropropan-2-yl 1-(2-(azetidin-1-yl)-4-chlorobenzyl)-1,8-diazaspiro[4.5]decane-8-carboxylate]",> 75,< 100,< 25,> 1000,< 25,> 1000,### (### is ≥75%),## (## is equal to or greater than 25% but less than 75%),# (# is <25%)

# The remaining lines, values ahead:
inhibition at 1 µM (MAGL [1]) [%],IC50 (MAGL [1]) [nM],inhibition at 1 µM (ABHD6 [2]) [%],IC50 (ABHD6 [2]) [nM],inhibition at 1 µM (FAAH [3]) [%],IC50 (FAAH [3]) [nM],MAGL % Inh 5 mg/kg (mouse) (MAGL [4]),FAAH % Inh 5 mg/kg (mouse) (FAAH [5]),ABHD6 % Inh 5 mg/kg (mouse) (ABHD6 [6]),Compound
> 75,< 100,< 25,> 1000,< 25,> 1000,### (### is ≥75%),# (# is <25%),# (# is <25%),"O=C(OC(C(F)(F)F)C(F)(F)F)N1CCC2(CCCN2Cc2ccc(C(F)(F)F)cc2N2CCC(F)CC2)CC1 [Example 91, 1,1,1,3,3,3-Hexafluoropropan-2-yl 1-(2-(4-fluoropiperidin-1-yl)-4-(trifluoromethyl)benzyl)-1,8-diazaspiro[4.5]decane-8-carboxylate]"
> 75,< 100,< 25,> 1000,< 25,> 1000,### (### is ≥75%),# (# is <25%),# (# is <25%),"O=C(OC(C(F)(F)F)C(F)(F)F)N1CCC2(CCCN2Cc2ccc(C(F)(F)F)cc2N2CCC2)CC1 [Example 96, 1,1,1,3,3,3-Hexafluoropropan-2-yl 1-(2-(azetidin-1-yl)-4-(trifluoromethyl)benzyl)-1,8-diazaspiro[4.5]decane-8-carboxylate]"
